Laboratory results as given in article PMC5108082, “Pharmacokinetics, toxicity, and cytochrome P450 modulatory activity of plumbagin” (BMC Pharmacology & Toxicology, 2016).

Tests used:
CYP3A11 = settings: mouse, in vivo, po
Protocol: Mice were divided into four groups (3 male mice each). Mice in the treated groups were fed with plumbagin at a daily oral dose of 25, 12.5, or 6.25 mg/kg body weight (1 mL) for 28 days. The control group received a daily oral dose (1 mL) of 20 % Tween-80 for 28 days. At the end of the experiment period, all animals were sacrificed under ether anesthesia and livers were removed for investigation of the modulatory effect of plumbagin on hepatic CYP1A2 and CYP3A11.
The liver samples were rinsed with ice-cold, 0.9 %NaCl, homogenized in 50 mM sodium phosphate buffer (pH 7.4) containing 0.1 mM EDTA, and centrifuged at 9000 × g for 20 min. […] Protein concentrations were determined by Bradford protein assay and the suspended microsomes were aliquoted and stored at −80 °C until use. […]
The incubation mixture of 500 μL containing the selective substrate (20 μM phenacetin and 40 μm nifedipine for CYP1A2 and CYP3A11, respectively), mice liver microsomes (in 100 mM phosphate buffer pH 7.4) was pre-incubated at 37 °C for 5 min in a shaking water bath. […] Concentrations of paracetamol (metabolite of CYP1A2) and oxidized nifedipine (metabolite of CYP3A11) in the incubation mixtures were determined using HPLC with UV detection. […]

[1] = system: 3D7 chloroquine-sensitive P. falciparum; settings: 3D7 clone; read-out: median IC50; cited from earlier work
parasitemia = system: parasitemia; set-up: method as in PMID 24410949; settings: 25 mg/kg body weight given for 4 days; cited from earlier work
CYP3A4 = settings: cited from earlier work
CYP2C19 = settings: cited from earlier work
[2] = rat, in vivo, cited from earlier work
mice = settings: cited from earlier work

CC1=CC(=O)c2c(O)cccc2C1=O [plumbagin, 5-hydroxy-2-methyl-1,4-naphthoquinone]
trend of CYP3A11 mRNA expression and enzyme activity (CYP3A11): a trend of reduction
IC50 [1]: 580 nM
antimalarial activity in vivo (reduction of parasitemia, prolongation of survival time) (parasitemia): weak
IC50 (CYP3A4): 2370 nM
IC50 (CYP2C19): 780 nM
oral bioavailability ([2]; po): 39%
elimination half-life (t1/2), mean [2]: 17 h
mean residence time (MRT), mean [2]: 22 h
time to reach maximum blood concentration (tmax) [2]: 2.5 h
maximal tolerated dose, subacute toxicity testing (mice; mice, for 14 days, ref our previous study): 25 mg/kg body weight
types of toxicity reported (mice; mice): diarrhea, skin rashes, leukocytosis, increased serum phosphatase levels
maximal tolerated dose, acute toxicity testing (mice; mice, ref our previous study): 100 mg/kg body weight
hepatotoxicity (mice; mouse, in vivo): marked increased plasma ALT and AST levels
